Measured values reported in PubChem BioAssay (NCI).
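48-hour exposure; five concentrations; linearly interpolated endpoints. GI50 = concentration required for 50% inhibition of growth. TGI: concentration producing complete growth inhibition.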

Experiments:
Assay in all cases: growth of human tumour cells (NCI), 48 h
[1] = tested on: COLO 205 colon
[2] = tested on: IGROV1 ovarian
[3] = tested on: RPMI-8226 leukemia
[4] = tested on: SK-MEL-28 melanoma
[5] = tested on: OVCAR-4 ovarian
[6] = tested on: NCI-H460 lung
[7] = tested on: NCI-H226 lung
[8] = tested on: HOP-62 NSCLC
[9] = tested on: A498 renal
[10] = tested on: MOLT-4 leukemia

For `CCCCCn1ncc(-c2c(O)c(O)cc3c(O)c(-c4c(C)cc5c(-c6cnn(CCCCC)n6)c(O)c(O)cc5c4O)c(C)cc23)n1`, the GI50 [1] was 0.595 µM, the TGI [1] was 3.22 µM and the GI50 [2] was 0.182 µM. The TGI [2] was 4.75 µM, the GI50 [3] was 0.109 µM and the TGI [3] was 4.9 µM. For the same compound, the GI50 [4] was 0.306 µM, the TGI [4] was 6.36 µM and the GI50 [5] was 0.176 µM. It also gave a TGI [5] of 4.49 µM, a GI50 [6] of 0.0258 µM and a TGI [6] of 0.465 µM. It also gave a GI50 [7] of 0.141 µM, a TGI [7] of 2.8 µM and a GI50 [8] of 0.14 µM. For the same compound, the TGI [8] was 2.75 µM, the GI50 [9] was 3.99 µM and the TGI [9] was 8.25 µM. It also gave a GI50 [10] of 0.0898 µM and a TGI [10] of 8.28 µM.

Work on `C=C(C)[C@@H]1CC[C@]2(c3ncc(C)o3)CC[C@]3(C)[C@H](CC[C@@H]4[C@@](C)(CCC#N)[C@H](C(=C)C)CC[C@]43C)[C@@H]12` yielded a GI50 [1] of 5.79 µM, a TGI [1] of 21.4 µM and a GI50 [2] of 5.07 µM. For the same compound, the TGI [2] was 19.1 µM, the GI50 [3] was 2.44 µM and the TGI [3] was 6.9 µM. It also gave a GI50 [4] of 5.42 µM, a TGI [4] of 18.4 µM and a GI50 [5] of 4.38 µM. For the same compound, the TGI [5] was 17.3 µM, the GI50 [6] was 5.42 µM and the TGI [6] was 19.4 µM. For the same compound, the GI50 [7] was 3.28 µM, the TGI [7] was 14.5 µM and the GI50 [8] was 6.99 µM. For the same compound, the TGI [8] was 21.6 µM, the GI50 [9] was 14.4 µM and the TGI [9] was 27.8 µM. For the same compound, the GI50 [10] was 2.85 µM and the TGI [10] was 9.82 µM.

For `COc1ccc2c3c([nH]c2c1[N+](=O)[O-])C(C)N(C(=O)/C=C/c1ccccc1)CC3` (stereo not given), the TGI [1] was greater than 100 µM, the TGI [2] was greater than 100 µM and the TGI [3] was 9.66 µM. It also gave a TGI [4] greater than 100 µM, a TGI [5] greater than 100 µM and a TGI [6] greater than 100 µM. It also gave a TGI [7] of 41.3 µM, a TGI [8] of 70.4 µM and a TGI [9] of 8.31 µM. For the same compound, the TGI [10] was greater than 100 µM.

Work on `CN1CCN(c2ccc(NC3=C(Cl)C(=O)c4ncccc4C3=O)cc2C(F)(F)F)CC1` yielded a GI50 [1] of 1.89 µM, a TGI [1] of 4.63 µM and a GI50 [2] of 1.56 µM. The TGI [2] was 3.18 µM, the GI50 [3] was 0.874 µM and the TGI [3] was 6.66 µM. For the same compound, the GI50 [4] was 1.99 µM, the TGI [4] was 3.45 µM and the GI50 [5] was 1.09 µM. The TGI [5] was 2.31 µM, the GI50 [6] was 17.4 µM and the TGI [6] was 34.8 µM. The GI50 [7] was 13 µM, the TGI [7] was 29.9 µM and the GI50 [8] was 17.4 µM. The TGI [8] was 37.1 µM, the GI50 [9] was 11.3 µM and the TGI [9] was 24.2 µM. It also gave a GI50 [10] of 0.304 µM and a TGI [10] of 2.67 µM.

`CCN(CCc1ccc(F)cc1)c1ccc(CO)c(Cl)c1` gave a GI50 [1] of 7.06 µM, a TGI [1] of 21.5 µM and a GI50 [2] of 0.824 µM. It also gave a TGI [2] of 7.11 µM, a GI50 [3] of 4.69 µM and a TGI [3] of 27.4 µM. For the same compound, the GI50 [4] was 16.3 µM, the TGI [4] was 31.2 µM and the GI50 [5] was 2.23 µM. For the same compound, the TGI [5] was 15.3 µM, the GI50 [6] was 6.3 µM and the TGI [6] was 21.6 µM. For the same compound, the GI50 [7] was 0.199 µM, the TGI [7] was 0.637 µM and the GI50 [8] was 13.1 µM. For the same compound, the TGI [8] was 26.2 µM, the GI50 [9] was 0.12 µM and the TGI [9] was 0.268 µM. For the same compound, the GI50 [10] was 14.3 µM and the TGI [10] was 50.1 µM.

`CC(=O)[CH-]C(=O)c1ccccc1.CC(=O)[CH-]C(=O)c1ccccc1.[O-]c1ccc(O)cc1.[O-]c1ccc(O)cc1.[Ti+4]` gave a GI50 [1] of 18.2 µM, a TGI [1] of 32.6 µM and a GI50 [2] of 23.7 µM. For the same compound, the TGI [2] was 63 µM, the GI50 [3] was 5.63 µM and the TGI [3] was greater than 100 µM. It also gave a GI50 [4] of 18.6 µM, a TGI [4] of 35.7 µM and a GI50 [5] of 18.2 µM. The TGI [5] was 32.3 µM, the GI50 [6] was 14.2 µM and the TGI [6] was 44.6 µM. For the same compound, the GI50 [7] was 15 µM, the TGI [7] was 34.6 µM and the GI50 [8] was 18.8 µM. The TGI [8] was 41.5 µM, the GI50 [9] was 18.4 µM and the TGI [9] was 37.3 µM. For the same compound, the GI50 [10] was 4.18 µM and the TGI [10] was greater than 100 µM.

`COc1cc2c3c(n(CCCn4cccn4)c(=O)c2cc1OC)-c1cc2c(cc1C3=O)OCO2` gave a GI50 [1] of 5.25 µM, a TGI [1] greater than 100 µM and a GI50 [2] of 1.8 µM. It also gave a TGI [2] of 29 µM, a GI50 [3] of 2.44 µM and a TGI [3] of 22.4 µM. For the same compound, the GI50 [4] was 5.35 µM, the TGI [4] was greater than 100 µM and the GI50 [5] was 19.7 µM. For the same compound, the TGI [5] was 66.1 µM, the GI50 [6] was 0.52 µM and the TGI [6] was 13.3 µM. It also gave a GI50 [7] of 0.922 µM, a TGI [7] of 9.51 µM and a GI50 [8] of 0.449 µM. For the same compound, the TGI [8] was 11.1 µM, the GI50 [9] was 2.48 µM and the TGI [9] was 14.2 µM. For the same compound, the GI50 [10] was 0.351 µM and the TGI [10] was greater than 35.9 µM.
